Experimental data: patent US11484535B2, “Liquid formulations of (S)-N-(5-((R)-2-(2,5-difluorophenyl)-pyrrolidin-1-yl)-pyrazolo[1,5-a] pyrimidin-3-yl)-3-hydroxypyrrolidine-1-carboxamide” (Loxo Oncology, Inc., priority 2016, dated 2022)
Structures can show the parent of a compound that is named as a salt.

Assays:
[1] = Accelerated stability study in an LDPE bag at 40° C./75% RH for five weeks; format: physicochemical
[2] = Dynamic vapor sorption (DVS) isotherm, hygroscopicity; format: physicochemical
Procedure: For the DVS measurement a sample of crystalline form (I-HS) was cycled through changing humidity conditions to determine its hygroscopicity. The sample was analyzed using a Surface Measurement System DVS-1 Dynamic Vapor Sorption System. […] Data was collected in 1 minute intervals. Nitrogen was used as the carrier gas. […] After completion of the sorption cycle, the sample was dried using the same procedure, but all the way down to 0% RH and finally taken back to the starting point of 20% RH. The weight change during the sorption/desorption cycles were plotted, allowing for the hygroscopic nature of the sample to be determined.
A small increase in mass of about 1.7% was observed between 0% and 90% RH during the sorption cycle.

[3] = tested on: Infantile Fibrosarcoma with NTRK3-ETV6 Fusion; test: Phase 1 pediatric dose-escalation study (NCT02637687), oral liquid formulation of Compound I-HS, case of one patient

Row | Structure (SMILES) | change in chemical impurity levels [1] | hygroscopicity by DVS ([2]; 20-90% RH ramp, 10% increments) | change in crystalline form during DVS (XRPD post vs pre DVS) ([2]; XRPD after DVS analysis) | reduction in the size and enhancement of the mass from baseline ([3]; MR of the brain and neck, end of cycle 1 (day 28), BID dosing, patient) | response on repeat scans ([3]; end of Cycle 2, MR of the brain and neck) | adverse events related to the compound ([3]; first two cycles (28-day cycles))
1 | O=C(Nc1cnn2ccc(N3CCC[C@@H]3c3cc(F)ccc3F)nc12)N1CC[C@H](O)C1.O=S(=O)(O)O [AM(HS), (S)—N-(5-((R)-2-(2,5-difluorophenyl)-pyrrolidin-1-yl)-pyrazolo[1,5-a]pyrimidin-3-yl)-3-hydroxypyrrolidine-1-carboxamide hydrogen sulfate] | neither the AM(HS) or crystalline form (I-HS) exhibited a significant changes in chemical impurity levels |  |  |  |  | 
2 | O=C(Nc1cnn2ccc(N3CCC[C@@H]3c3cc(F)ccc3F)nc12)N1CC[C@H](O)C1 [Compound I-HS, (S)—N-(5-((R)-2-(2,5-difluorophenyl)-pyrrolidin-1-yl)-pyrazolo[1,5-a]pyrimidin-3-yl)-3-hydroxypyrrolidine-1-carboxamide hydrogen sulfate] | neither the AM(HS) or crystalline form (I-HS) exhibited a significant changes in chemical impurity levels | non-hygroscopic | no change | more than 90% | partial response | no adverse events
